{"source": "patent US20110256240A1", "about": "“Combination Therapy” (priority 2004, published 2011)", "tested_on": "range of tumour models", "test": "anti-tumour activity in a range of models", "format": "in vivo", "conditions": "once-daily oral administration"}
{"compound": "COc1cc2c(Oc3ccc4[nH]c(C)cc4c3F)ncnc2cc1OCCCN1CCCC1", "note": "[AZD2171, 4-(4-fluoro-2-methyl-1H-indol-5-yloxy)-6-methoxy-7-(3-(pyrrolidin-1-yl)propoxy)quinazoline]", "values": [{"measurement": "anti-tumour activity in a range of models", "result": "broad-spectrum anti-tumour activity"}]}
